Measured values: patent US8101375B2, “Compositions and methods for detecting phosphomonoester” (Illumina, Inc., priority 2005, dated 2012)

What was measured:
p60c-src kinase = p60c-src kinase (Homo sapiens, UniProt P12931); assay: Multiplex kinase profiling assay, 194-target pool, chemical labeling, p60c-src kinase; format: biochemical; settings: chemical labeling with low pH EDC pre-treatment
Experimental: (§1) A kinase profiling assay was carried out in four major steps, including the phosphorylation of protein target in a kinase enzyme reaction, labeling of phosphorylated target, hybridization of labeled target to the array, and detection of hybridized target on the array.
(§2) In the first step, phosphorylation was carried out in duplex format such that a mixture of two DNA-protein conjugate targets, one having an amino acid recognition sequence for p60c-src kinase and the other for PKA kinase, were co-incubated with p60c-src kinase and PKA kinase. The reaction was performed in 15 ul of 50 mM HEPES, containing 0.1 mM EDTA, 0.015% Brig 35, 0.15 mM ATP, 30 mM MgCl2, 0.1% 2-mercaptoethanol, pH 7.5.
(§3) Upon completion of the enzymatic reaction; the second step was carried out to detect phosphorylation using chemical labeling or antibody-based labeling. In the chemical labeling method, a solution of 5-(aminoacetamido)fluorescein (NH2-FAM, Molecular Probes, Oreg.) and EDC in MES buffer, pH 6.0, was added to the reaction mixture to a final concentration of 150 mM EDC and 200 μM of NH2-FAM. Where pre-treatment was used to block (i.e. protect) […] moieties, the pH of the reaction mixture was first adjusted to pH 4.5 and then pre-treated with 100 mM of EDC for 1.5 hours at 25° C. After the pre-treatment, the NH2-FAM and EDC were added and the reaction was allowed to proceed overnight. […]

PKA kinase = PKA kinase (Homo sapiens, UniProt P17612); assay: Multiplex kinase profiling assay, 194-target pool, chemical labeling, PKA kinase; format: biochemical; settings: selectivity check
Experimental: as §1, §2, §3

Chain of p60c-src kinase (P12931 whole entry): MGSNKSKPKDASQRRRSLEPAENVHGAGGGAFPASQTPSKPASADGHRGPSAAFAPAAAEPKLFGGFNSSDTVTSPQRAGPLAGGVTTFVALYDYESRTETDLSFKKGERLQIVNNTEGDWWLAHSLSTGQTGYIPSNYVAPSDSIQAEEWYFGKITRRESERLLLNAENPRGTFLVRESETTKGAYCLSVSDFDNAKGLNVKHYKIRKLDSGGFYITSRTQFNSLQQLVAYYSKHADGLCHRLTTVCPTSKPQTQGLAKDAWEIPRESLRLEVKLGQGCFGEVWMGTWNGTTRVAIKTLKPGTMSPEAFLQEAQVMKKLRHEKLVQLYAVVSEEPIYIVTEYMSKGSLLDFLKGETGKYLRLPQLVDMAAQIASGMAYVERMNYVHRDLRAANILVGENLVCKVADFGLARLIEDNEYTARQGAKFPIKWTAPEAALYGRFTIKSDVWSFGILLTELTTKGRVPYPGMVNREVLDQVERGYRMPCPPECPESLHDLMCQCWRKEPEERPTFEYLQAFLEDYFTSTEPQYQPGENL

## COc1cc2ncnc(Nc3ccc(Oc4ccccc4)cc3)c2cc1OC [Src Kinase Inhibitor I]
p60c-src kinase
  inhibition of p60c-src kinase: 85%
PKA kinase
  effect on PKA kinase: no detectable effect
